Measured values taken from patent US20110071158A1, “NEW COMPOUNDS” (BOEHRINGER INGELHEIM INTERNATIONAL GMBH, priority 2009, published 2011).

Columns and labels:
PTK2 enzyme = biological target: T1, PTK2 enzyme (Homo sapiens, UniProt Q05397); assay: PTK2 enzyme test, Assay 2 (DELFIA, poly-Glu-Tyr substrate, antibody PT66); type: biochemical; details: Assay 2 (values marked *); 1 h pre-incubation, 0.5% DMSO
T1 construct: purchased Invitrogen PV3832
Excerpt: This test uses active PTK2 enzyme (Invitrogen Code PV3832) and poly-Glu-Tyr (4:1, Sigma P-0275) as the kinase substrate. The kinase activity is detected by means of the phosphorylation of the substrate in a DELFIA™ assay. The phosphorylated substrate is detected with the europium-labelled phosphotyrosine antibody PT66 (Perkin Elmer, No.: AD0040).
In order to determine concentration-activity curves with PTK2-inhibitors the compounds are serially diluted first of all in 10% DMSO/H2O and then in kinase dilution buffer (20 mM TRIS/HCl pH 7.5, 0.1 mM EDTA, 0.1 mM EGTA, 0.286 mM sodium orthovanadate, 10% glycerol with the addition of freshly prepared BSA (fraction V, 1 mg/mL) and DTT (1 mM)) and 10 μL of each dilution are dispensed per well in a 96-well microtitre plate (clear U-shaped base plate, Greiner No. 650101) (the inhibitors are tested in duplicates) and mixed with 10 μL/well of PTK2 kinase (0.01 μg/well). PTK2 kinase is diluted accordingly beforehand with kinase dilution buffer. The diluted PTK2 inhibitor and the PTK2 kinase are pre-incubated for 1 h at RT and shaken at 500 revolutions per min. Then 10 μL/well poly-Glu-Tyr substrate (25 μg/well poly-Glu-Tyr, 0.05 μg/well biotinylated poly-Glu-Tyr dissolved in 250 mM TRIS/HCl pH 7.5, 9 mM DTT) are added. The reaction is started by the addition of 20 μL of ATP Mix (30 mM TRIS/HCl pH 7.5, 0.02% Brij, 0.2 mM sodium orthovanadate, 10 mM magnesium acetate, 0.1 mM EGTA, 1× phosphatase inhibitor cocktail 1 (Sigma, No.: P2850), 50 μM ATP (Sigma, No.: A3377; 15 mM stock solution))—the final concentration of DMSO is 0.5%. After 1 h kinase reaction (the plates are shaken at 500 rpm), the reaction is stopped by the addition of 12 μL/well of 100 mM EDTA, pH 8, and shaken for a further 5 min at RT (500 U/min). 55 μL of the reaction mixture are transferred into a streptavidin plate (Strepta Well High Bind (transparent, 96-well) made by Roche, No.: 11989685001) and incubated for 1 h at RT (shaking at 500 rpm). Then the microtitre plate is washed five times with 200 μL/well D-PBS (Invitrogen, No. 14190). 100 μL of a solution containing DELFIA Eu-N1 Anti-Phosphotyrosine PT66 antibody (Perkin Elmer, No.: AD0040, diluted 1:9000 in DELFIA test buffer (Perkin Elmer, No.: 1244-111)) is then added and it is incubated for 1 h at RT (shaking at 500 rpm). Then the plate is washed five times with 200 μL/well DELFIA washing buffer (Perkin Elmer, No.: 1244-114), 200 μL/well strengthening solution (Perkin Elmer, No.: 1244-105) is added and the whole is incubated for 10 min at RT (shaking at 300 rpm).
The time-delayed europium fluorescence is then measured in a microtitre plate reader (Victor, Perkin Elmer). The positive control consists of wells that contain solvent (0.5% DMSO in test buffer) and display uninhibited kinase activity. Wells that contain test buffer instead of enzyme act as a control for the background kinase activity.
The IC50 values are determined from concentration-activity analyses by iterative calculation using a sigmoid curve analysis algorithm (FIFTY, based on Graph PAD Prism Version 3.03) with a variable Hill coefficient.

[1] = biological target: T2, Xenopus laevis Aurora B/INCENP complex (Xenopus laevis, UniProt Q6DE08); assay: Aurora-B kinase assay (radioactive enzyme inhibition); type: biochemical
T2 construct: equipped at the N-terminal position with a GST tag (amino acids 60-361); GST (N, cleaved yes); made in house; host or cells: E. coli BL21 (DE3)
T2 sequence (Q6DE08 60-361): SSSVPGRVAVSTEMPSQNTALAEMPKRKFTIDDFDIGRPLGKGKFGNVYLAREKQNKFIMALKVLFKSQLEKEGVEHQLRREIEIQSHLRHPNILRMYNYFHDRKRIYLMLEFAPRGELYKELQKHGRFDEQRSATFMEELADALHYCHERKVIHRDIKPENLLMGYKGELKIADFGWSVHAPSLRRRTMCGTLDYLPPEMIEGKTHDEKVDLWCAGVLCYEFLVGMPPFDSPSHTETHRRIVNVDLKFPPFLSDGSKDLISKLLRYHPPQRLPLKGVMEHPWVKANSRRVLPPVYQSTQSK
T2 sequence (O13024 790-847 partner): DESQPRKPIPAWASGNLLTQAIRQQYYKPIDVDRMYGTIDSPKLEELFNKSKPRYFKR
Excerpt: A radioactive enzyme inhibition assay was developed using E. coli-expressed recombinant Xenopus laevis Aurora B wild-type protein equipped at the N-terminal position with a GST tag (amino acids 60-361) in a complex with Xenopus laevis INCENP (amino acids 790-847), which is obtained from bacteria and purified. In equivalent manner a Xenopus laevis Aurora B mutant (G96V) in a complex with Xenopus laevis INCENP^790-847 may also be used.
The coding sequence for Aurora-B^60-361 from Xenopus laevis is cloned into a modified version of pGEX-6T (Amersham Biotech) via BamHI and SalI cutting sites. The vector contains two cloning cassettes which are separated by a ribosomal binding site, allowing bi-cistronic expression. In this configuration Xenopus laevis Aurora B is expressed by the first cassette, and the Xenopus laevis INCENP^790-847 is expressed by the second cassette. The resulting vector is pAUB-IN^847.
First of all the E. coli strain BL21 (DE3) is co-transformed with pUBS520 helper plasmid and pAUB-IN^847, after which protein expression is induced using 0.3 mM IPTG at an OD600 of 0.45-0.7. The expression is then continued for approx. 12-16 h at 23-25° C. with agitation.
The bacteria are then removed by centrifuging and the pellet is lysed in lysis buffer (50 mM Tris/Cl pH 7.6, 300 mM NaCl, 1 mM DTT, 1 mM EDTA, 5% glycerol, Roche Complete Protease Inhibitor tablets) using ultrasound, using 20-30 mL lysis buffer per litre of E. coli culture. The lysed material is freed from debris by centrifugation (12000 rpm, 45-60 min, JA20 rotor). The supernatant is incubated with […] of equilibrated GST Sepharose Fast Flow (Amersham Biosciences) per litre of E. coli culture for 4-5 h at 4° C. Then the column material is washed with 30 volumes of lysis buffer and then equilibrated with 30 volumes of cleavage buffer (50 mM Tris/Cl pH 7.6, 150 mM NaCl, 1 mM DTT, 1 mM EDTA). To cleave the GST tag from Aurora B, 10 units of Prescission Protease (Amersham Biosciences) are used per milligram of substrate and the mixture is incubated for 16 h at 4° C. The supernatant which contains the cleavage product is loaded onto a 6 mL Resource Q column (Amersham Biosciences) equilibrated with ion exchange buffer (50 mM Tris/Cl pH 7.6, 150 mM NaCl, 1 mM DTT, 1 mM EDTA). The Aurora B/INCENP complex is caught as it flows through, then concentrated and loaded onto a Superdex 200 size exclusion chromatography (SEC) column equilibrated with SEC buffer (10 mM Tris/Cl pH 7.6, 150 mM NaCl, 1 mM DTT, 1 mM EDTA). Fractions which contain the AuroraB/INCENP complex are collected and concentrated using Vivaspin concentrators (molecular weight exclusion 3000-5000 Da) to a final concentration of 12 mg/mL. Aliquots (e.g. 240 ng/μL) for kinase assays are transferred from this stock solution into freezing buffer (50 mM Tris/Cl pH 8.0, 150 mM NaCl, 0.1 mM EDTA, 0.03% Brij-35, 10% glycerol, 1 mM DTT) and stored at −80° C.
Test substances are placed in a polypropylene dish (96 wells, Greiner #655 201), in order to cover a concentration frame of 10 μM-0.0001 μM. The final concentration of DMSO in the assay is 5%. 30 μL of protein mix (50 mM Tris/Cl pH 7.5, 25 mM MgCl2, 25 mM NaCl, 167 μM ATP, 10 ng Xenopus laevis Aurora B/INCENP complex in freezing buffer) are pipetted into the 10 μl of test substance provided in 25% DMSO and this is incubated for 15 min at RT. Then 10 μL of peptide mix (100 mM Tris/Cl pH 7.5, 50 mM MgCl2, 50 mM NaCl, 5 μM NaF, 5 μM DTT, 1 μCi gamma-P33-ATP [Amersham], 50 μM substrate peptide [biotin-EPLERRLSLVPDS or multimers thereof, or biotin-EPLERRLSLVPKM or multimers thereof, or biotin-[…]]) are added. The reaction is incubated for 75 min (ambient temperature) and stopped by the addition of 180 μL of 6.4% trichloroacetic acid and incubated for 20 min on ice. […]

T1 sequence (Q05397 whole entry): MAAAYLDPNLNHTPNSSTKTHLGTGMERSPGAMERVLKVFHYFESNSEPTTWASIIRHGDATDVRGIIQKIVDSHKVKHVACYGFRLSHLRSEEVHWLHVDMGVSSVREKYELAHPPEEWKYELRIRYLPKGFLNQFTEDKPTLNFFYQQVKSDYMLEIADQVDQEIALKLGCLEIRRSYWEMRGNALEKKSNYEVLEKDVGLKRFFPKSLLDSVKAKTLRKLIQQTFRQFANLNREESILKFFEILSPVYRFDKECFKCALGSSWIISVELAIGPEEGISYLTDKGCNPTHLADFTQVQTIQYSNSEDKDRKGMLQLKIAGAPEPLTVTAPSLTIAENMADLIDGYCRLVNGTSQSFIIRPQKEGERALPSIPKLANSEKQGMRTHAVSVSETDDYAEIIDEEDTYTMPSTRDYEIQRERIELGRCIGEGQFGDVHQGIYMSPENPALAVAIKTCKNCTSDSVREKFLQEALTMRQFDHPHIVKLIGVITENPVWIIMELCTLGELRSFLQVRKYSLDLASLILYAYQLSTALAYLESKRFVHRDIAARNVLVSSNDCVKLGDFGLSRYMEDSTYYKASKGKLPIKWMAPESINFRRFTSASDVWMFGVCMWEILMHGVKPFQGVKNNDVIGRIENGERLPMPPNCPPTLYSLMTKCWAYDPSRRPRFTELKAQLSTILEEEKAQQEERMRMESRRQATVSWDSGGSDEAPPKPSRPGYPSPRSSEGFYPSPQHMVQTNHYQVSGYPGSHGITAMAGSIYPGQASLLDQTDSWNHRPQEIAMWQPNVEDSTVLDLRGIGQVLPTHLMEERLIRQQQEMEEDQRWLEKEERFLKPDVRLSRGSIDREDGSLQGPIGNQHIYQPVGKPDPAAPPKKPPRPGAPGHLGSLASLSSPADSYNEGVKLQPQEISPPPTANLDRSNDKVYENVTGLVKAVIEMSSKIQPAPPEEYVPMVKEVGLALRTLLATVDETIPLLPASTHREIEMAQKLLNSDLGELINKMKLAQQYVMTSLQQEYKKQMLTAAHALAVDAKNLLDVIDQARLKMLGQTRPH

SMILES | IC50 (PTK2 enzyme) | IC50 [1]
CNC(=O)c1cc(OC)c(Nc2ncc(C(F)(F)F)c(N[C@@H]3CCCC[C@H]3NS(C)(=O)=O)n2)cc1Cl [Example I-137] | 0.44 nM | 1070 nM
COCCN1CCC(NC(=O)c2cc(OC)c(Nc3ncc(Cl)c(N[C@@H]4CCC[C@H]4N(C)S(C)(=O)=O)n3)cc2Cl)CC1 [Example I-166] | 0.49 nM | 1140 nM
COc1cc(C(=O)NC2CCN(C)CC2)c(F)cc1Nc1ncc(Br)c(N[C@@H]2CCC[C@H]2N(C)S(C)(=O)=O)n1 [Example I-142] | 0.5 nM | 311 nM
COc1cc(C(=O)NC2CCN(C)CC2)c(Cl)cc1Nc1ncc(C(F)(F)F)c(N[C@@H]2CCC[C@H]2N(C)S(C)(=O)=O)n1 [Example I-131] | 0.29 nM | 1010 nM
COc1cc(N2CCN(C(C)(C)C)CC2)c(C)cc1Nc1ncc(C(F)(F)F)c(N[C@@H]2CCCC[C@H]2N(C)S(C)(=O)=O)n1 [Example I-158] | 1 nM | > 10000 nM
COc1cc(C(=O)NC2CCN(C)CC2)c(F)cc1Nc1ncc(Cl)c(N[C@@H]2CCC[C@H]2N(C)S(C)(=O)=O)n1 [Example I-127, 4-{5-chloro-4-[(1R,2R)-2-(methanesulphonyl-methyl-amino)-cyclopentylamino]-pyrimidin-2-ylamino}-2-fluoro-5-methoxy-N-(1-methyl-piperidin-4-yl)-benzamide] | 0.53 nM | 417 nM
CCc1cc(Nc2ncc(C(F)(F)F)c(N[C@@H]3CCC[C@H]3N(C)S(C)(=O)=O)n2)c(OC)cc1N1CCNCC1 [Example I-153] | 0.69 nM | > 10000 nM
COc1cc(N2CCNCC2)c(Cl)cc1Nc1ncc(C(F)(F)F)c(N[C@@H]2CCC[C@H]2N(C)S(C)(=O)=O)n1 [Example I-134] | 0.5 nM | 778 nM
COc1cc(NC(=O)[C@H]2CCCN2C)ccc1Nc1ncc(C(F)(F)F)c(N[C@@H]2CCCC[C@H]2N(C)S(C)(=O)=O)n1 [Example I-146] | 0.58 nM | 413 nM
CNC(=O)c1cc(OC)c(Nc2ncc(C(F)(F)F)c(N[C@@H]3CCCC[C@H]3NS(C)(=O)=O)n2)cc1C [Example I-152] | 0.41 nM | 1590 nM
C#CCNC(=O)c1cc(OC)c(Nc2ncc(C(F)(F)F)c(N[C@@H]3CCC[C@H]3NS(C)(=O)=O)n2)cc1C [Example I-138] | 0.41 nM | 422 nM
